Test results published in ChEMBL document CHEMBL1201862, “PubChem BioAssay data set” (2004).
The source made the active and inactive calls.

Key:
cells [1] = assay type: functional, cell-based
cells [2] = assay type: functional, cell-based; remark: listed apart in the source
INS1 = assay: INS-1E survival protection against cytokine death – cell-based, luminescence, retest, dose response (AID 449756); assay type: functional; conditions: Rattus norvegicus;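 note: cell death triggered by IL-1 beta plus TNF-alpha plus IFN-gamma mixture; protective hits raise ATP signal compared with cytokine alone wells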
[3] = HGIII-sPLA2 enzyme inhibition potency – biochemical, QFRET, IC50, dose response (AID 743457);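 note: green fluorescence rise as the enzyme cleaves BODIPY PC-A2 in liposomes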
[4] = target: Fructose-bisphosphate aldolase (Mycobacterium tuberculosis, UniProt P9WQA3); assay: Fluorescence-based biochemical high throughput dose response assay for inhibitors of the fructose-bisphosphate aldolase (FBA) of M. tuberculosis.; assay type: functional
[5] = A549 cell cytotoxicity, dose response, cytotoxicity control, plate reader, cherry-pick, antagonist series (AID 743412); assay type: functional, cell-based
[6] = toxicity toward HepG2 liver cells – cell-based, plate reader, cherry-pick, antagonist series, cytotoxicity control, dose response (AID 743416); assay type: functional
[7] = viability loss in HEK293 cells – cell-based, plate reader, cherry-picked samples, cytotoxicity control, dose response (AID 743446); assay type: functional
HeLa = assay: viability loss in HeLa cells – cell-based, ATP luminescence, cherry-pick samples, cytotoxicity control, dose response (AID 687004); assay type: functional; conditions: Homo sapiens
HEK293 = assay: viability loss in HEK293T cells – cell-based, ATP luminescence, cherry-pick samples, cytotoxicity control, dose response (AID 687005); assay type: functional; conditions: Homo sapiens;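 note: cells exposed to compound for 48 hours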
[8] = HEK293 Cytotoxicity Assay Measured in Cell-Based System Using Plate Reader - 7071-01_Inhibitor_Dose_CherryPick_Activity_Set2.; assay type: functional
Cryptococcus neoformans = assay: PubChem AID 686997; assay type: functional, organism-based
[9] = general mammalian cell viability loss – inhibitor set, cherry-pick, set 2, cytotoxicity control for miR-122 modulator project, dose response (AID 720697); assay type: functional, cell-based
[10] = T. cruzi growth inhibition in host cells, dose response, cell-based, plate reader, dry powder, set 2 (AID 652275); assay type: functional
Galanin receptor type 3 = Galanin receptor type 3 (Homo sapiens, UniProt O60755); assay: Fluorescence-based cell-based primary high throughput dose response assay to identify antagonists of the Galanin Receptor 3 (GalR3).; assay type: functional
Paired box protein Pax-8 = Paired box protein Pax-8 (Homo sapiens, UniProt Q06710); assay: PAX8 transcriptional activity inhibition in RMG-I – RMG-I cells, luciferase, cherry-pick, dose response (AID 687027); assay type: functional, cell-based;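 note: luciferase reporter driven by Pax8 target thyroperoxidase promoter measured by SteadyGlo luminescence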
[11] = general cell-killing toxicity readout – plate reader, dry powder samples, cytotoxicity control for PAX8 inhibitor project, dose response (AID 743021); assay type: functional, cell-based

Sequence of Fructose-bisphosphate aldolase (P9WQA3 whole entry): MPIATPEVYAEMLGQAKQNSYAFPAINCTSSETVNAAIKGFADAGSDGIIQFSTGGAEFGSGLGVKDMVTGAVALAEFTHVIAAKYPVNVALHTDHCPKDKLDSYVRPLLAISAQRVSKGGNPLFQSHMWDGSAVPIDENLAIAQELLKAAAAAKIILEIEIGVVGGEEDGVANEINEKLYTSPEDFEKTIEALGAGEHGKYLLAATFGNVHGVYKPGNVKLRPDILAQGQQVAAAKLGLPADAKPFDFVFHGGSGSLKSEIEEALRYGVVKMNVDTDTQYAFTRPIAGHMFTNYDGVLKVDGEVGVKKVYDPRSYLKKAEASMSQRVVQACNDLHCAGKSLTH
Sequence of Galanin receptor type 3 (O60755 whole entry): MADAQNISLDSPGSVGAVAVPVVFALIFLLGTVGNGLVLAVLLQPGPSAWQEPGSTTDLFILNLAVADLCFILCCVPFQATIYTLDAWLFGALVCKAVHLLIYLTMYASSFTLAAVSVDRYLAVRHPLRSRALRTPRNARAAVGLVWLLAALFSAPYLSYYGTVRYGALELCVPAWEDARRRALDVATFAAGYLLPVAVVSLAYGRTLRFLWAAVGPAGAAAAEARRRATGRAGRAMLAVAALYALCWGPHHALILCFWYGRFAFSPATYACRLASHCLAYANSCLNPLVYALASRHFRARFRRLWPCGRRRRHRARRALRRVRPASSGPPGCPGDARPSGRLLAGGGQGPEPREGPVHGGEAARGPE
Sequence of Paired box protein Pax-8 (Q06710 whole entry): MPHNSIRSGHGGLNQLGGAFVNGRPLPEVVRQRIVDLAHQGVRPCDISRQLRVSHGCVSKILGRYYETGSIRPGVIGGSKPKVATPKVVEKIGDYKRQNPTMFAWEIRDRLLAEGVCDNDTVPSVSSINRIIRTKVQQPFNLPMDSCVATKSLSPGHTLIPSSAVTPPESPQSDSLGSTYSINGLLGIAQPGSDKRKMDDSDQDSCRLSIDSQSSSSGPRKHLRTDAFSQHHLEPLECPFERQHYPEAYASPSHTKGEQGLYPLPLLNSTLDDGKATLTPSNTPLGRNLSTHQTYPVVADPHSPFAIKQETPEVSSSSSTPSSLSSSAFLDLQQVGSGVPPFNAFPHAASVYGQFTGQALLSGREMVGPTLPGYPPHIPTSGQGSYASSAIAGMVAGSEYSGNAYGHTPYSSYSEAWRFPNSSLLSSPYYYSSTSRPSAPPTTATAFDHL

SMILES: CCOC(=O)N1CCN(S(=O)(=O)c2ccc(C(=O)NNc3nc4c(C)cc(C)cc4s3)cc2)CC1
- EC50 (cells [1]): 14.5 µM (active)
- EC50 (cells [2]): > 350 µM (not active)
- AC50 (INS1): 4.46 µM (active)
- IC50 [3]: 24.6 µM (inactive)

SMILES: CCc1c(C)c2ccc(OCC(N)=O)cc2oc1=O
- IC50 [4]: > 0.37 µM (active)

SMILES: COc1ccc(S(=O)(=O)N2CCOCC2)cc1NC(=O)COc1ccc(C)cc1
- AC50 [5]: 8.06 µM (active)
- AC50 [6]: 8.95 µM (active)
- AC50 [7]: 28.1 µM (active)

SMILES: C[C@@H]1CN([C@H](C)CO)C(=O)c2c(c3ccccc3n2C)-c2ccccc2CO[C@H]1CN(C)S(=O)(=O)c1ccc(Cl)cc1
- AC50 (HeLa): > 47 µM (inactive)
- AC50 (HEK293): 23.1 µM (active)
- AC50 [8]: 23.1 µM (active)

SMILES: COC(=O)C1=C(C)N(Cc2ccc(F)cc2)C(=S)NC1c1ccccc1 (configuration not stated)
- AC50 (Cryptococcus neoformans): > 76 µM (inactive)

SMILES: CCCC(=O)Nc1ccc2c(c1)C(=O)N(C)[C@@H]1CC[C@H](CC(=O)NCC(F)(F)F)O[C@H]1CO2
- AC50 [9]: 2.15 µM (active)

SMILES: CN1CCCCN2[C@@H](CO)[C@H](c3ccc(Br)cc3)[C@@H]2C1
- AC50 [10]: 16 µM (active)

SMILES: NC(=O)c1cn(C2OC(CO)C(O)C2O)c2ncnc(N)c12 (configuration not stated)
- IC50 (Galanin receptor type 3): 1.28 µM (active)
- AC50 (Paired box protein Pax-8): < 0.26 µM (active)
- AC50 [11]: 0.591 µM (active)
